For one experiment, the target named is T1, human SGLT2 (Homo sapiens, UniProt P31639).
T1 construct: expressed in transfected cells; host or cells: CHOK1 cells (selected with Geneticin)
T1 sequence (P31639 1-672): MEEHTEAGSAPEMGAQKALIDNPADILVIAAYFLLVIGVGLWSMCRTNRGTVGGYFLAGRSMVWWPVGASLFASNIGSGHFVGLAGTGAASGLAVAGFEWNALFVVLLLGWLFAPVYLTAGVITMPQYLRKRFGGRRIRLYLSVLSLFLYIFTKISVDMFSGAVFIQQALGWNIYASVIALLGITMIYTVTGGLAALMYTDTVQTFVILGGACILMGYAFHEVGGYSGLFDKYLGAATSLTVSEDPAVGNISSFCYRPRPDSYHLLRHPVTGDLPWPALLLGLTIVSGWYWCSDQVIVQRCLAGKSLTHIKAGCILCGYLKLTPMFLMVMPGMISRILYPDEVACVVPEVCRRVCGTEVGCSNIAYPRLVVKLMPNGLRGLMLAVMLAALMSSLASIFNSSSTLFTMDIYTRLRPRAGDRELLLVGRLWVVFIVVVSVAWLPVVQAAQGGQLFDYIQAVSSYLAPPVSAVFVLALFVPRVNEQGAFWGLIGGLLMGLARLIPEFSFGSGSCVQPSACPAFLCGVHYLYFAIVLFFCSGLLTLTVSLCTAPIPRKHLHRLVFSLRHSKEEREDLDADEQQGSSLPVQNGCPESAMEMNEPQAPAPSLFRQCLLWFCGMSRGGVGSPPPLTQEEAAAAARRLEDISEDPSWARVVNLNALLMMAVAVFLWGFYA
As to the kind of experiment: Assay for SGLT2 inhibition (14C-AMG uptake). It counts as cell-based. As for the experimental part:
Compounds described in the above examples were used for the SGLT2 inhibition assay. CHOK1 cells expressing human SGLT2 were seeded in 24-well plates at a density of 400,000 cells/well in F-12 nutrient mixture (Ham's F-12) containing 10% fetal bovine serum, 400 μg/ml Geneticin, 50 units/ml sodium penicillin G (Gibco-BRL) and 50 μg/ml streptomycin sulfate. After 2 days of culture at 37° C. in a humidified atmosphere containing 5% CO2, cells were washed once with the assay buffer (137 mM NaCl, 5 mM KCl, 1 mM CaCl2, 1 mM MgCl2, 50 mM Hepes, and 20 mM Tris, pH 7.4) and incubated with 250 μl of the buffer containing test compounds for 10 min at 37° C. Test compounds were dissolved in DMSO. The final concentration of DMSO was 0.5%. The transport reaction was initiated by addition of 50 μl [^14C]-methyl-α-D-glucopyranoside (^14C-AMG) solution (final concentration, 0.5 mM). After incubation for 2 hours at 37° C., the uptake was stopped by aspiration of the incubation mixture, the cells were washed three times with ice-cold PBS. Then, cells were solubilized with 0.3 N NaOH and aliquots were taken for determination of radioactivity by a liquid scintillation counter. Nonspecific AMG uptake was defined as that which occurred in the presence of 100 μM of phlorizin, a specific inhibitor of sodium-dependent glucose cotransporter. Specific uptake was normalized for the protein concentrations measured by the method of Bradford. The 50% inhibitory concentration (IC50) values were calculated from dose-response curves by least square method.

The next experiment has as its system Sprague-Dawley (SD) rats. The experiment can be described thus: Urinary glucose excretion test in rats. It counts as in vivo, rat. The note with it: male SD rats, 30 mg/kg by oral gavage, urine collected for 24 hours, daily amount of glucose excreted per individual. The protocol: Compounds described in the above examples were used for the Urinary glucose excretion test in rats.
6-week-old male Sprague-Dawley (SD) rats were housed in individual metabolic cages with free access to food and water from 2 days prior to the experiment. On the morning of the experiment, rats were administered vehicle (0.2% carboxymethyl cellulose solution containing 0.2% Tween80) or test compounds (30 mg/kg) by oral gavage at a volume of 10 ml/kg. Then, urine of the rat was collected for 24 hours, and the urine volume was measured. Subsequently, the glucose concentration in urine was quantified using the enzymatic assay kit and the daily amount of glucose excreted in urine per individual was calculated.

[1] abbreviates: CHOK1 cells expressing human SGLT2, 14C-AMG uptake, 2 hours at 37° C., read-out: IC50.

What is called IC50 is the concentration needed to halve the response being measured.

Where two headings read alike, the source gives them in different places.

With `OC[C@H]1O[C@@H](n2cc(Cc3ccc(C4CC4)cc3)c3c(F)cccc32)[C@H](O)[C@@H](O)[C@@H]1O` [Example 1, 3-(4-Cyclopropylphenylmethyl)-4-fluoro-1-(β-D-gluco-pyranosyl)indole], the half-inhibitory concentration (IC50) at human SGLT2 (setting [1]) stood at 1.9 nM. Besides, the Urinary glucose result in the experiment with Sprague-Dawley (SD) rats is “B (2400 mg>B≧2000 mg)”.

Regarding `OC[C@H]1O[C@@H](n2cc(Cc3ccc(C4CC4)cc3)c3c(Cl)cccc32)[C@H](O)[C@@H](O)[C@@H]1O` [Example 2, 4-Chloro-3-(4-cyclopropylphenyl-methyl)-1-(β-D-glucopyranosyl)indole], the IC50 against human SGLT2 is 2.3 nM. Further, in the experiment with Sprague-Dawley (SD) rats, the Urinary glucose entry is “A (A≧2400 mg)”.

Take `OC[C@H]1O[C@@H](n2cc(Cc3ccc(C4CC4)cc3)c3c(F)cc(F)cc32)[C@H](O)[C@@H](O)[C@@H]1O` [Example 3, 3-(4-Cyclopropylphenylmethyl)-4,6-difluoro-1-(β-D-gluco-pyranosyl) indole]: the half-maximal inhibitory concentration (IC50) at human SGLT2 (setting [1]) is 2.8 nM. For the same molecule, the Urinary glucose result with Sprague-Dawley (SD) rats is “B (2400 mg>B≧2000 mg)”.

`OC[C@H]1O[C@@H](n2cc(Cc3ccc(C4CC4)cc3)c3c(Cl)cc(F)cc32)[C@H](O)[C@@H](O)[C@@H]1O` [Example 4, 4-Chloro-3-(4-cyclopropylphenylmethyl)-6-fluoro-1-(β-D-gluco-pyranosyl) indole]: the half-inhibitory concentration (IC50) on human SGLT2 (setting [1]) is 3.6 nM. The Urinary glucose entry in the experiment on Sprague-Dawley (SD) rats is reported as “C (2000 mg>C)”.

For the origin of these results see patent US7851617B2, “Indole derivatives” (Mitsubishi Tanabe Pharma Corporation, priority 2006, dated 2010).
